Results published in US20250221982A1, “COMPOSITIONS AND METHODS FOR LOCAL DELIVERY OF PHARMACEUTICAL AGENTS TO TREAT CANCER” (The General Hospital Corporation, priority 2018, published 2025).

Assays:
[1] = system: PyMTtg primary breast cancer cells; assay: Topical treatment of subcutaneous PyMTtg breast cancer tumors in mice; format: in vivo, mouse (wild-type C57BL/6); details: two topical applications; calcipotriene 80 nmol, imiquimod 5% cream; compared to EtOH plus control cream; p=0.011 for the combination
From the text: PyMTtg primary breast cancer cells are implanted subcutaneously into the inguinal regions of wild-type C57BL/6 mice. When tumors reached 5 mm in diameter (day 13), the following topical treatments applied to the tumor sites twice: (a) 80nmol calcipotriene in 20 microliters of 100% EtOH followed by 5% imiquimod cream, (b) 80nmol calcipotriene in 20 microliter 100% EtOH followed by moisturizing (control) cream, (c) 20 microliter 100% EtOH followed by 5% imiquimod cream, and (d) 20 microliter 100% EtOH followed by moisturizing (control) cream.
Breast cancer cells were obtained from PyMTtg mice that develop spontaneous breast cancer resembling luminal type of breast cancer in humans^12. Breast cancers of PyMTtg mice were harvested before the tumors reached 2 cm in diameter. Cancers were excised and dissociated into single cell suspension. Breast cancer cells were re-suspended at a concentration of 1×10^6 cells per 100 μl of 1:1 ratio of RPMI and Matrigel Membrane Matrix (Corning). Inguinal regions of recipient mice were shaved prior to cancer cell injection. 1×10^6 cells were injected subcutaneously at day 0. Topical treatments were applied when tumor sizes reached 5 mm in diameter. […] Animals were monitored daily and tumors measured over time to determine the impact of topical treatments on breast cancer growth. […]

B16-F10 melanoma cells = assay: Topical calcipotriene plus IP DMXAA against subcutaneous B16-F10 melanoma in mice; format: in vivo, mouse (wild-type C57BL/6); details: for T cell (CD3+CD19−) infiltrate within the treated melanoma tumors / proliferation (Ki67+) of CD4+ and CD8+ tumor infiltrating T lymphocytes (melanoma tumors): flow cytometry at harvest; for cutaneous melanoma growth (tumor volume over time): three applications, topical calcipotriene 40 nmol, IP DMXAA 400 μg, compared to EtOH plus saline, p=0.019 for the combination
Protocol: (2A) Schematic diagram of the experimental protocol used to determine the efficacy of calcipotriene plus DMXAA as a localized immunotherapy for melanoma. B16-F10 melanoma cells are implanted subcutaneously into the flanks of wild-type C57BL/6 mice. When tumors reached 5 mm in diameter (day 14), the following treatments were applied three times: (a) 40 nmol calcipotriene in 20 microliters of 100% EtOH followed by IP injection of 400 μg DMXAA in 100 μl saline, (b) 40nmol calcipotriene in 20 microliters of 100% EtOH followed by IP injection of 100 μl saline, (c) 20 microliters of 100% EtOH followed by IP injection of 400 μg DMXAA in 100 μl saline, and (d) 20 microliter 100% EtOH followed by IP injection of 100 μl saline.
Melanoma Cells (B16-F10, ATCC, Manassas, VA) were injected subcutaneously into flanks of mice at 2×10^5 cells per 100 μl of 1:1 ratio of DMEM (Corning) at day 0. Flank regions of recipient mice were shaved prior to cancer cell injection. Topical treatment with calcipotriene or EtOH together with intraperitoneal (IP) injection of DMXAA (murine STING agonist, 5,6-Dimethylxanthenone-4-acetic Acid, ASA404, or Vadimezan) or normal saline were initiated when tumor sizes reached 5 mm in diameter. Mice were divided into 4 groups and were treated topically with either calcipotriene (40 nmol) or ethanol (EtOH) as carrier directly on the tumor sites. Following treatment of either calcipotriene or EtOH (control), mice were injected IP with either 400 μg DMXAA in 100 μl normal saline or normal saline alone (control). Calcipotriene/EtOH and DMXAA/saline treatments were re-applied two more times (FIG. 2A). Animals were monitored daily and tumors measured over time to determine the impact of treatments on melanoma growth. At harvest, tumors were weighed, and the tumor infiltrating T cells were profiled using flow cytometry.

| SMILES | cutaneous breast tumor growth (tumor volume over time) [1] | T cell (CD3+CD19−) infiltrate within the treated melanoma tumors (B16-F10 melanoma cells) | proliferation (Ki67+) of CD4+ and CD8+ tumor infiltrating T lymphocytes (melanoma tumors) (B16-F10 melanoma cells) | cutaneous melanoma growth (tumor volume over time) (B16-F10 melanoma cells) |
| --- | --- | --- | --- | --- |
| C=C1/C(=C\C=C2/CCC[C@]3(C)[C@@H]([C@H](C)/C=C/[C@@H](O)C4CC4)CC[C@@H]23)C[C@@H](O)C[C@@H]1O [calcipotriene] | did not show a significant impact on breast cancer growth | absent | absent | showed efficacy in inhibiting melanoma growth |
| Cc1ccc2c(=O)c3cccc(CC(=O)O)c3oc2c1C [DMXAA, 5,6-Dimethylxanthenone-4-acetic Acid] |  | absent | absent | did not show a significant impact on melanoma development |
| CC(C)Cn1cnc2c(N)nc3ccccc3c21 [imiquimod] | did not show a significant impact on breast cancer growth |  |  |  |
